Reference: patent publication US20200079765A1, “SUBSTITUTED HETEROARYL PYRROLONES AND SALTS THEREOF AND USE THEREOF AS HERBICIDAL ACTIVE SUBSTANCES” (Bayer CropScience Aktiengesellschaft, priority 2016, published 2020)

Columns and labels:
Assay type in all cases: in vivo
Veronica persica = experiment: Post-emergence herbicidal action (Experimental Part 1, A); settings: about 3 weeks after treatment, 100% = plants have died, 0% = like control plants
Procedure: (§1) Seeds of monocotyledonous and dicotyledonous weeds and crop plants were placed in sandy loam in plastic or wood-fiber pots, covered with soil and cultivated in a greenhouse under controlled growth conditions. 2 to 3 weeks after sowing, the test plants were treated at the one-leaf stage. The compounds of the invention, formulated in the form of wettable powders (WP) or as emulsion concentrates (EC), were then sprayed onto the green parts of the plants as aqueous suspension or emulsion with addition of 0.5% additive at a water application rate of 600 l/ha (converted). After the test plants had been kept in the greenhouse under optimum growth conditions for about 3 weeks, the activity of the preparations was rated visually in comparison to untreated controls. For example, 100% activity=the plants have died, 0% activity=like control plants. Tables A1 to A14 below show the effects of selected compounds of the general formula (I) according to Tables I.1 to I.116 on various harmful plants and an application rate corresponding to 1280 g/ha or 320 g/ha, which were obtained by the experimental procedure mentioned above.

Alopecurus myosuroides [1] = experiment: as above; settings: application rate 320 g/ha, about 3 weeks after treatment, 100% = plants have died, 0% = like control plants
Procedure: as §1

Viola tricolor [2] = experiment: as above; settings: rated visually after about 3 weeks
Procedure: as §1

Stellaria media [3] = experiment: as above; settings: rated visually after about 3 weeks
Procedure: as §1

Polygonum convolvulus [4] = experiment: as above; settings: rated visually after about 3 weeks
Procedure: as §1

Setaria viridis [5] = experiment: as above; settings: about 3 weeks after treatment, 100% = plants have died, 0% = like control plants
Procedure: as §1

Abutilon theophrasti [6] = experiment: as above; settings: about 3 weeks after treatment, 100% = plants have died, 0% = like control plants
Procedure: as §1

Amaranthus retroflexus [7] = experiment: as above; settings: about 3 weeks after treatment, 100% = plants have died, 0% = like control plants
Procedure: as §1

Echinochloa crus-galli [8] = experiment: as above; settings: application rate 320 g/ha, about 3 weeks after treatment, 100% = plants have died, 0% = like control plants
Procedure: as §1

Ipomoea purpurea [9] = experiment: as above; settings: rated visually after about 3 weeks
Procedure: as §1

Matricaria inodora [10] = experiment: as above; settings: rated visually after about 3 weeks
Procedure: as §1

Lolium rigidum = experiment: Pre-emergence herbicidal action (Experimental Part 1, B); settings: application rate 1280 g/ha, scored visually after about 3 weeks
Description: (§2) Seeds of monocotyledonous and dicotyledonous weed plants and crop plants were placed in plastic or organic planting pots and covered with soil. The compounds of the invention, formulated in the form of wettable powders (WP) or as emulsion concentrates (EC), were then applied onto the surface of the covering soil as aqueous suspension or emulsion with addition of 0.5% additive at a water application rate of 600 l/ha (converted). After the treatment, the pots were placed in a greenhouse and kept under good growth conditions for the test plants. After about 3 weeks, the effect of the preparations was scored visually in comparison with untreated controls as percentages. For example, 100% activity=the plants have died, 0% activity=like control plants. Tables B1 to B14 below show the effects of selected compounds of the general formula (I) according to Tables I.1 to I.116 on various harmful plants and an application rate corresponding to 1280 g/ha or 320 g/ha, which were obtained by the experimental procedure mentioned above.

Alopecurus myosuroides [11] = experiment: as above; settings: scored visually after about 3 weeks
Description: as §2

Viola tricolor [12] = experiment: as above; settings: scored visually after about 3 weeks
Description: as §2

Stellaria media [13] = experiment: as above; settings: scored visually after about 3 weeks
Description: as §2

Polygonum convolvulus [14] = experiment: as above; settings: scored visually after about 3 weeks
Description: as §2

Setaria viridis [15] = experiment: as above; settings: scored visually after about 3 weeks
Description: as §2

Avena fatua = experiment: as above; settings: scored visually after about 3 weeks
Description: as §2

Abutilon theophrasti [16] = experiment: as above; settings: scored visually after about 3 weeks
Description: as §2

Amaranthus retroflexus [17] = experiment: as above; settings: scored visually after about 3 weeks
Description: as §2

Echinochloa crus-galli [18] = experiment: as above; settings: application rate 320 g/ha, scored visually after about 3 weeks
Description: as §2

Ipomoea purpurea [19] = experiment: as above; settings: application rate 320 g/ha, scored visually after about 3 weeks
Description: as §2

Matricaria inodora [20] = experiment: as above; settings: scored visually after about 3 weeks
Description: as §2

CCOC(=O)OC1C(C)=CC(=O)N1c1cc(C(C)(C)C)on1 (centres unmarked) [I.11-162, 5-Ethoxycarbonyloxy-4-methyl-1-(5-tert-butyl-1,2-isoxazol-3-yl)-1,5-dihydro-2H-pyrrol-2-one]
herbicidal activity on Veronica persica (visual rating vs untreated controls) (Veronica persica; application rate 320 g/ha): 100% | herbicidal activity on Alopecurus myosuroides (visual rating vs untreated controls) (Alopecurus myosuroides [1]): 100% | Viola tricolor, herbicidal activity (Viola tricolor [2]; application rate 320 g/ha): 100% | Stellaria media, herbicidal activity (Stellaria media [3]; application rate 320 g/ha): 100% | Polygonum convolvulus, herbicidal activity (Polygonum convolvulus [4]; application rate 320 g/ha): 100% | herbicidal activity on Setaria viridis (visual rating vs untreated controls) (Setaria viridis [5]; application rate 320 g/ha): 100% | herbicidal activity on Abutilon theophrasti (visual rating vs untreated controls) (Abutilon theophrasti [6]; application rate 320 g/ha): 100% | herbicidal activity on Amaranthus retroflexus (visual rating vs untreated controls) (Amaranthus retroflexus [7]; application rate 320 g/ha): 100% | herbicidal activity on Echinochloa crus-galli (visual rating vs untreated controls) (Echinochloa crus-galli [8]): 90% | Ipomoea purpurea, herbicidal activity (Ipomoea purpurea [9]; application rate 320 g/ha): 90% | Matricaria inodora, herbicidal activity (Matricaria inodora [10]; application rate 320 g/ha): 100% | Lolium rigidum, herbicidal activity (Lolium rigidum): 90% | Alopecurus myosuroides, herbicidal activity (Alopecurus myosuroides [11]; application rate 320 g/ha): 100% | Viola tricolor, herbicidal activity (Viola tricolor [12]; application rate 320 g/ha): 100% | Stellaria media, herbicidal activity (Stellaria media [13]; application rate 320 g/ha): 100% | Polygonum convolvulus, herbicidal activity (Polygonum convolvulus [14]; application rate 320 g/ha): 100% | Setaria viridis, herbicidal activity (Setaria viridis [15]; application rate 320 g/ha): 100% | Avena fatua, herbicidal activity (Avena fatua; application rate 320 g/ha): 90% | Abutilon theophrasti, herbicidal activity (Abutilon theophrasti [16]; application rate 320 g/ha): 100% | Amaranthus retroflexus, herbicidal activity (Amaranthus retroflexus [17]; application rate 320 g/ha): 100% | Echinochloa crus-galli, herbicidal activity (Echinochloa crus-galli [18]): 100% | Ipomoea purpurea, herbicidal activity (Ipomoea purpurea [19]): 90% | Matricaria inodora, herbicidal activity (Matricaria inodora [20]; application rate 320 g/ha): 100%

CCOC(=O)OC1C=C(C)C(=O)N1c1cc(C(F)(F)F)c(Cl)cn1 (centres unmarked) [I.12-451]
herbicidal activity on Veronica persica (visual rating vs untreated controls) (Veronica persica; application rate 1280 g/ha): 100% | Viola tricolor, herbicidal activity (Viola tricolor [2]; application rate 320 g/ha): 100% | Viola tricolor, herbicidal activity (Viola tricolor [2]; application rate 1280 g/ha): 100% | Stellaria media, herbicidal activity (Stellaria media [3]; application rate 320 g/ha): 100% | Stellaria media, herbicidal activity (Stellaria media [3]; application rate 1280 g/ha): 100% | Polygonum convolvulus, herbicidal activity (Polygonum convolvulus [4]; application rate 320 g/ha): 100% | Polygonum convolvulus, herbicidal activity (Polygonum convolvulus [4]; application rate 1280 g/ha): 100% | herbicidal activity on Setaria viridis (visual rating vs untreated controls) (Setaria viridis [5]; application rate 320 g/ha): 100% | herbicidal activity on Setaria viridis (visual rating vs untreated controls) (Setaria viridis [5]; application rate 1280 g/ha): 100% | herbicidal activity on Abutilon theophrasti (visual rating vs untreated controls) (Abutilon theophrasti [6]; application rate 320 g/ha): 100% | herbicidal activity on Abutilon theophrasti (visual rating vs untreated controls) (Abutilon theophrasti [6]; application rate 1280 g/ha): 100% | herbicidal activity on Amaranthus retroflexus (visual rating vs untreated controls) (Amaranthus retroflexus [7]; application rate 320 g/ha): 100% | herbicidal activity on Amaranthus retroflexus (visual rating vs untreated controls) (Amaranthus retroflexus [7]; application rate 1280 g/ha): 100% | Ipomoea purpurea, herbicidal activity (Ipomoea purpurea [9]; application rate 320 g/ha): 100% | Ipomoea purpurea, herbicidal activity (Ipomoea purpurea [9]; application rate 1280 g/ha): 100% | Matricaria inodora, herbicidal activity (Matricaria inodora [10]; application rate 320 g/ha): 90% | Matricaria inodora, herbicidal activity (Matricaria inodora [10]; application rate 1280 g/ha): 100% | Alopecurus myosuroides, herbicidal activity (Alopecurus myosuroides [11]; application rate 1280 g/ha): 90% | Viola tricolor, herbicidal activity (Viola tricolor [12]; application rate 320 g/ha): 100% | Viola tricolor, herbicidal activity (Viola tricolor [12]; application rate 1280 g/ha): 100% | Stellaria media, herbicidal activity (Stellaria media [13]; application rate 320 g/ha): 100% | Stellaria media, herbicidal activity (Stellaria media [13]; application rate 1280 g/ha): 100% | Polygonum convolvulus, herbicidal activity (Polygonum convolvulus [14]; application rate 1280 g/ha): 100% | Setaria viridis, herbicidal activity (Setaria viridis [15]; application rate 320 g/ha): 90% | Setaria viridis, herbicidal activity (Setaria viridis [15]; application rate 1280 g/ha): 100% | Avena fatua, herbicidal activity (Avena fatua; application rate 1280 g/ha): 90% | Abutilon theophrasti, herbicidal activity (Abutilon theophrasti [16]; application rate 1280 g/ha): 100% | Amaranthus retroflexus, herbicidal activity (Amaranthus retroflexus [17]; application rate 320 g/ha): 100% | Amaranthus retroflexus, herbicidal activity (Amaranthus retroflexus [17]; application rate 1280 g/ha): 100% | Matricaria inodora, herbicidal activity (Matricaria inodora [20]; application rate 1280 g/ha): 90%
